The values below come from article PMC6022219, “Identification and Characterization of a Novel Palmitoyl Acyltransferase as a Druggable Rheostat of Dynamic Palmitoylome in L. donovani” (Frontiers in Cellular and Infection Microbiology, 2018).

Assay [1] addresses T1, LdPAT4-DHHC (Leishmania donovani, UniProt A0A3S7X1Q3).
T1 construct: gene LdCL_280025100; DHHC domain only (423 bp), N-terminal GST tag (pGEX-4T-1, BamHI/SalI), E. coli Rosetta, ~40 kDa with tag
T1 sequence (A0A3S7X1Q3 268-407): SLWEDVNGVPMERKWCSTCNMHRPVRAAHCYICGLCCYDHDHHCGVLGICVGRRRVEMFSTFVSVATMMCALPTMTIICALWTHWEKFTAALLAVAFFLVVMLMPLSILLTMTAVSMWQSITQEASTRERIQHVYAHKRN
The assay can be described thus: click-chemistry metabolic labelling of E. coli expressing LdPAT4-DHHC, Oregon Green […] fluorometry. It is filed as cell-based. To be noted: substrate Alk-C16 100 uM, induced E. coli Rosetta cells, 37 C, 6 h; 2-BMP concentration not stated.

The target of assay [2] is T1, LdPAT4-DHHC. The description is as above. To be noted: 100 uM Alk-C16, induced E. coli Rosetta cells, 37 C, 6 h; labelled compound (alkyne probe). It is filed as cell-based.

Consider `CCCCCCCCCCCCCCC(Br)C(=O)O` (centres unmarked) [2-BMP], for which the “reduction in fluorescence intensity” value in assay [1] is “following 2-BMP treatment of induced cells, reduction in fluorescence intensity was detected”.

On to `C#CCCCCCCCCCCCCCC(=O)O` [Alk-C16], for which the “click-chemistry metabolic labelling of E. coli expressing LdPAT4-DHHC, Oregon Gr” value in assay [2] is reported as “predominant incorporation of palmitic acid analogs into transformed E. coli”.
